According to US9700603B2, “Use of antidotes to coagulation inhibitors indicated in the prevention or treatment of thromboembolic pathologies” (LABORATOIRE FRANCAIS DU FRACTIONNEMENT ET DES …, priority 2013, dated 2017):

Experiments:
Format in all cases: biochemical
[1] = test system: thrombin generation in normal plasma pool; experiment: Thrombin generation test (CAT), intrinsic pathway, cephalin alone
Experimental: (§1) The thrombin generation test consists of activating coagulation ex vivo either using a mixture of tissue factor and phospholipids, or using cephalin and then measuring the concentration of thrombin generated over time.
(§2) The reaction is started by the addition of 20 μL of Fluca-kit (substrate+CaCl2) which constitutes the start of the measurement of the appearance of thrombin. The appearance of fluorescence is measured on a fluorometer of the Fluoroskan Ascent type (ThermoLabsystems) at an excitation wavelength of 390 nm and emission wavelength of 460 nm. The thrombinograms (curves representing the intensity of fluorescence as a function of time) are then analyzed using the Thrombinoscope™ software which converts the fluorescence value to nM of thrombin by comparative calculation.
The reagents, the automated equipment and the experimental protocol are identical to those described in Example 1.

[2] = test system: thrombin generation in normal plasma pool; experiment: Thrombin generation test (TGT Fluoroskan), extrinsic pathway, TF 1 pM / PL 4 μM
Experimental: The stock solution of rivaroxaban at 436 μg/mL is diluted in 5% DMSO in order to obtain intermediate concentrations which, added to the NPP (Normal Pool Plasma), give final concentrations of rivaroxaban in μg per mL of plasma.
as §1, §2

normal plasma pool [3] = experiment: Prothrombin time (PT) with RecombiPlastin
[4] = test system: thrombin generation in normal plasma; experiment: Thrombin generation (TGT) induced by tissue factor (0.5 pM)
Experimental: The effect of an overdose of FXa in normal plasma was assessed by measuring thrombin generation (TGT) following induction by tissue factor (0.5 pM) (FIG. 5, Table I). Doses of 0.03 μg/ml to 0.5 μg/ml of FXa were compared. The quantity of thrombin generated depends on the dose of FXa added.
A similar experiment was repeated in the presence of a therapeutic dose of 0.35 μg/ml of Rivaroxaban (FIG. 6, Table I). […] On the other hand, a correction of thrombin generation is obtained starting from 0.06 μg/ml (▪) up to a dose of 0.25 μg/ml (▴).

[5] = test system: thrombin generation in normal plasma pool; experiment: Thrombin generation test (TGT Fluoroskan), extrinsic pathway, TF 5 pM / PL 4 μM; settings: rivaroxaban 0.35 μg/mL in PNP, no FXa
Experimental: as §1, §2
The reagents, the automaton and the experimental protocol are identical to those described in Example 1. […]

[6] = test system: thrombin generation in normal plasma; experiment: Thrombin generation (TGT) induced by cephalin
Experimental: A series of similar experiments is carried out by inducing the initiation of coagulation by cephalin. The series of preliminary experiments mimics the extrinsic activation of coagulation. This second series of experiments mimics the intrinsic activation of coagulation. The presence of FXa in an increasing quantity in normal plasma (●) […] the speed of appearance of thrombin without changing the total quantity of thrombin generated (FIG. 7, Table II). The speed of appearance of the thrombin is correlated with the dose of FXa added. Shorter times to peak are obtained in the presence of FXa.
The effect of FXa following the induction of thrombin generation by cephalin is then measured in the presence of Rivaroxaban at 0.35 μg/ml (FIG. 8, Table II). […] The presence of FXa in an increasing concentration makes it possible to increase the quantity of thrombin generated in a dose-dependent manner, as well as to reduce the time to peak. A maximum quantity of thrombin is obtained in the case of a concentration comprised between 0.125 and 0.25 μg/ml.

normal plasma pool [7] = experiment: aPTT with PTT-A; settings: rivaroxaban 0.35 μg/mL in PNP, no FXa
[8] = rivaroxaban 0.35 μg/ml in PNP, no FX
[9] = rivaroxaban 0.5 μg/mL in PNP, no FX (Table 2)
[10] = rivaroxaban 0.5 μg/ml in PNP, no FX (Table 1)
[11] = Unicalibrator + 0.35 μg/ml Rivaroxaban, no hFXa

SMILES: O=C(NC[C@H]1CN(c2ccc(N3CCOCC3=O)cc2)C(=O)O1)c1ccc(Cl)s1 [rivaroxaban]
- effect on ability to generate thrombin from normal plasma ([1]; 0.35 μg/mL of Rivaroxaban, activation with Cephalin): completely destroys the ability to generate thrombin
- ETP (endogenous thrombin potential) [1, 8]: 230.5 nM·min
- LT (lag time) [1, 8]: 48.17 min
- Peak [1, 8]: 8.49 nM
- ST (start time) [1, 8]: 116 min
- TTP (time to peak) [1, 8]: 54 min
- mVRI (mean velocity rate index) [1, 8]: 1.46 nM/min
- effect on ability to generate thrombin from normal plasma ([2]; 0.5 μg/mL of Rivaroxaban, activation by tissue factor and phospholipids): completely destroys the ability to generate thrombin
- LT (lag time) [2, 9]: 30.59 min
- Peak [2, 9]: 6.83 nM
- TTP (time to peak) [2, 9]: 58.81 min
- mVRI (mean velocity rate index) [2, 9]: 0.24 nM/min
- LT (lag time) [2, 10]: 25.5 min
- Peak [2, 10]: 7.42 nM
- TTP (time to peak) [2, 10]: 49.33 min
- mVRI (mean velocity rate index) [2, 10]: 0.31 nM/min
- PT with RecombiPlastin 2G (ISI: 1.0) (normal plasma pool [3]; rivaroxaban 0.35 μg/mL in PNP, no FXa): 26 s
- PT (RecombiPlastin ISI: 1.0) (normal plasma pool [3]; rivaroxaban 0.5 μg/ml in PNP, no FX): 32.5 s
- reduction of thrombin generation versus untreated plasma ([4]; 0.35 μg/ml of Rivaroxaban): approximately 75%
- Lag time [4, 11]: 10.17 min
- Peak [4, 11]: 10.69 nM
- ttPeak [4, 11]: 20.5 min
- ETP (endogenous thrombin potential) [5]: 772 nM·min
- LT (lag time) [5]: 11.11 min
- Peak [5]: 31.32 nM
- ST (start time) [5]: 67 min
- TTP (time to peak) [5]: 25.33 min
- mVRI (mean velocity rate index) [5]: 2.20 nM/min
- effect on thrombin generation induced by cephalin ([6]; Rivaroxaban at 0.35 μg/ml): completely inhibits thrombin generation
- ETP [6, 11]: 0 nM
- Peak [6, 11]: 0 nM
- ttPeak [6, 11]: 0 min
- aPTT with PTT-A (normal plasma pool [7]): 50.5 s
